Measured values as given in BindingDB's records for doi:10.1021/acs.jmedchem.7b00875 (University of Florida, 2017).

Biological target: Neuronal acetylcholine receptor subunit alpha-7 (Homo sapiens, UniProt P36544)
Assay: Partial agonist activity at human alpha7 nAChR expressed in Xenopus laevis oocytes assessed as induction of maximum current response administered for 12 secs followed by washout period for 181 secs by voltage clamp technique

Chain of Neuronal acetylcholine receptor subunit alpha-7 (P36544 whole entry): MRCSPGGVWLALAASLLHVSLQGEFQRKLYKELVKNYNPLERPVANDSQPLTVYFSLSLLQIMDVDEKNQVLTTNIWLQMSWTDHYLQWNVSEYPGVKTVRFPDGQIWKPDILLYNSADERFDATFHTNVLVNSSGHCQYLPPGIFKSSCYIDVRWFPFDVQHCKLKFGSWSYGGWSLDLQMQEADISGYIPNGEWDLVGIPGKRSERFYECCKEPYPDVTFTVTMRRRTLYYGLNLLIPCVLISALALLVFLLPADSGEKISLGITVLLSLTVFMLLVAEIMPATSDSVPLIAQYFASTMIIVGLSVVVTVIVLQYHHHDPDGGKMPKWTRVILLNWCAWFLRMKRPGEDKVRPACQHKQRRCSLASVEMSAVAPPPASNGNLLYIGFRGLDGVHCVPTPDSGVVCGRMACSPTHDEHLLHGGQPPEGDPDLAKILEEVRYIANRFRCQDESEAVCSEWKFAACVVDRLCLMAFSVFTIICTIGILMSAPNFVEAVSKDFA

CC[N+]1(CC)CCN(c2ccccc2)CC1
EC50: 221 µM
